In PubChem BioAssay AID1259407 (Chemical Carcinogenesis Research Information System (CCRIS), 2018) one finds mutagenic call data, which are given here for 5 compounds.

The data set deals with CCRIS mutagenicity, Ames/micronucleus/aberration tests. Kind of data set: CCRIS mutagenicity studies.
Where [1] appears, read: Test System: AMES SALMONELLA TYPHIMURIUM, Strain/Indicator: TA98, Metabolic Activation: NONE, Method: PREINCUBATION
Setting [2] is: Test System: AMES SALMONELLA TYPHIMURIUM, Strain/Indicator: TA100, Metabolic Activation: NONE, Method: PREINCUBATION
Where [3] appears, read: Test System: AMES SALMONELLA TYPHIMURIUM, Strain/Indicator: TA1535, Metabolic Activation: NONE, Method: PREINCUBATION

Active and inactive are the calls of the source. How the calls were made is not given here.

For the compound `CCCCN(N=O)C(=O)NC`, the mutagenic call is “active; positive” (Test System: E. COLI, Strain/Indicator: WP2 UVRA, Metabolic Activation: NONE, Method: PREINCUBATION) and “active; positive” (Test System: E. COLI, Strain/Indicator: WP2 UVRA, Metabolic Activation: RAT, LIVER, S-9, PHENOBARBITAL AND 5,6-BENZOFLAVONE, Method: PREINCUBATION).
As for `CCCNCC(=O)NC(=O)C=[N+]=[N-]`, the mutagenic call (Test System: UDS RODENT CELLS, Strain/Indicator: THY INCORP (NON-S-PHASE), Metabolic Activation: NONE, Method: AUTORADIOGRAPHY) is “active; positive”.
In the case of `O=C1c2c(O)ccc([N+](=O)[O-])c2C(=O)c2c([N+](=O)[O-])ccc(O)c21`, the mutagenic call was “active; positive” (Test System: AMES SALMONELLA TYPHIMURIUM, Strain/Indicator: TA98, Metabolic Activation: HAMSTER, LIVER, S-9, AROCLOR 1254 (10%), Method: PREINCUBATION); “active; positive” under setting [1]; “active; positive” (Test System: AMES SALMONELLA TYPHIMURIUM, Strain/Indicator: TA98, Metabolic Activation: NONE, Method: STANDARD PLATE); “active; positive” (Test System: AMES SALMONELLA TYPHIMURIUM, Strain/Indicator: TA98, Metabolic Activation: RAT, LIVER, S-9, AROCLOR 1254 (10%), Method: PREINCUBATION); “active; positive” (Test System: AMES SALMONELLA TYPHIMURIUM, Strain/Indicator: TA98, Metabolic Activation: RAT, LIVER, S-9, AROCLOR 1254, Method: STANDARD PLATE); “active; positive” (Test System: AMES SALMONELLA TYPHIMURIUM, Strain/Indicator: TA100, Metabolic Activation: HAMSTER, LIVER, S-9, AROCLOR 1254 (10%), Method: PREINCUBATION). In addition, the mutagenic call under setting [2] was “active; positive”; the mutagenic call (Test System: AMES SALMONELLA TYPHIMURIUM, Strain/Indicator: TA100, Metabolic Activation: NONE, Method: STANDARD PLATE) is “active; positive”; the mutagenic call (Test System: AMES SALMONELLA TYPHIMURIUM, Strain/Indicator: TA100, Metabolic Activation: RAT, LIVER, S-9, AROCLOR 1254 (10%), Method: PREINCUBATION) is “active; positive”; the mutagenic call (Test System: AMES SALMONELLA TYPHIMURIUM, Strain/Indicator: TA100, Metabolic Activation: RAT, LIVER, S-9, AROCLOR 1254, Method: STANDARD PLATE) was “active; positive”; the mutagenic call (Test System: AMES SALMONELLA TYPHIMURIUM, Strain/Indicator: TA1535, Metabolic Activation: HAMSTER, LIVER, S-9, AROCLOR 1254 (10%), Method: PREINCUBATION) was “active; positive”; the mutagenic call under setting [3] was “active; positive”. Also, the mutagenic call by setting is: (Test System: AMES SALMONELLA TYPHIMURIUM, Strain/Indicator: TA1535, Metabolic Activation: NONE, Method: STANDARD PLATE) “inactive; negative”; (Test System: AMES SALMONELLA TYPHIMURIUM, Strain/Indicator: TA1535, Metabolic Activation: RAT, LIVER, S-9, AROCLOR 1254 (10%), Method: PREINCUBATION) “active; positive”; (Test System: AMES SALMONELLA TYPHIMURIUM, Strain/Indicator: TA1537, Metabolic Activation: HAMSTER, LIVER, S-9, AROCLOR 1254 (10%), Method: PREINCUBATION) “active; positive”; (Test System: AMES SALMONELLA TYPHIMURIUM, Strain/Indicator: TA1537, Metabolic Activation: NONE, Method: PREINCUBATION) “active; positive”; (Test System: AMES SALMONELLA TYPHIMURIUM, Strain/Indicator: TA1537, Metabolic Activation: NONE, Method: STANDARD PLATE) “active; positive”; (Test System: AMES SALMONELLA TYPHIMURIUM, Strain/Indicator: TA1537, Metabolic Activation: RAT, LIVER, S-9, AROCLOR 1254 (10%), Method: PREINCUBATION) “active; positive”. Besides, the mutagenic call runs as follows: (Test System: AMES SALMONELLA TYPHIMURIUM, Strain/Indicator: TA1537, Metabolic Activation: RAT, LIVER, S-9, AROCLOR 1254, Method: STANDARD PLATE) “active; positive”; (Test System: AMES SALMONELLA TYPHIMURIUM, Strain/Indicator: TA1538, Metabolic Activation: NONE, Method: STANDARD PLATE) “active; positive”; (Test System: AMES SALMONELLA TYPHIMURIUM, Strain/Indicator: TA1538, Metabolic Activation: RAT, LIVER, S-9, AROCLOR 1254, Method: STANDARD PLATE) “active; positive”; (Test System: AMES SALMONELLA TYPHIMURIUM, Strain/Indicator: TA1978, Metabolic Activation: NONE, Method: STANDARD PLATE) “active; positive”; (Test System: AMES SALMONELLA TYPHIMURIUM, Strain/Indicator: TA1978, Metabolic Activation: RAT, LIVER, S-9, AROCLOR 1254, Method: STANDARD PLATE) “active; positive”.
Regarding `COC(=O)CCN(N=O)C(N)=O`, the mutagenic call reads like this: (Test System: E. COLI B, Strain/Indicator: H/R30R, Metabolic Activation: NONE) “active; positive”; (Test System: E. COLI B, Strain/Indicator: HS30R, Metabolic Activation: NONE) “active; positive”.
`COC(=O)c1ccc(C=O)cc1`: the mutagenic call runs as follows: (Test System: AMES SALMONELLA TYPHIMURIUM, Strain/Indicator: TA97, Metabolic Activation: HAMSTER, LIVER, S-9, AROCLOR 1254 (10 OR 30%), Method: PREINCUBATION) “inactive; negative”; (Test System: AMES SALMONELLA TYPHIMURIUM, Strain/Indicator: TA97, Metabolic Activation: NONE, Method: PREINCUBATION) “inactive; negative”; (Test System: AMES SALMONELLA TYPHIMURIUM, Strain/Indicator: TA97, Metabolic Activation: RAT, LIVER, S-9, AROCLOR 1254 (10 OR 30%), Method: PREINCUBATION) “inactive; negative”; (Test System: AMES SALMONELLA TYPHIMURIUM, Strain/Indicator: TA98, Metabolic Activation: HAMSTER, LIVER, S-9, AROCLOR 1254 (10 OR 30%), Method: PREINCUBATION) “inactive; negative”; under setting [1], “inactive; negative”; (Test System: AMES SALMONELLA TYPHIMURIUM, Strain/Indicator: TA98, Metabolic Activation: RAT, LIVER, S-9, AROCLOR 1254 (10 OR 30%), Method: PREINCUBATION) “inactive; negative”. The mutagenic call by setting is: (Test System: AMES SALMONELLA TYPHIMURIUM, Strain/Indicator: TA100, Metabolic Activation: HAMSTER, LIVER, S-9, AROCLOR 1254 (10 OR 30%), Method: PREINCUBATION) “inactive; negative”; under setting [2], “inactive; negative”; (Test System: AMES SALMONELLA TYPHIMURIUM, Strain/Indicator: TA100, Metabolic Activation: RAT, LIVER, S-9, AROCLOR 1254 (10 OR 30%), Method: PREINCUBATION) “inactive; negative”; (Test System: AMES SALMONELLA TYPHIMURIUM, Strain/Indicator: TA1535, Metabolic Activation: HAMSTER, LIVER, S-9, AROCLOR 1254 (10 OR 30%), Method: PREINCUBATION) “inactive; negative”; under setting [3], “inactive; negative”; (Test System: AMES SALMONELLA TYPHIMURIUM, Strain/Indicator: TA1535, Metabolic Activation: RAT, LIVER, S-9, AROCLOR 1254 (10 OR 30%), Method: PREINCUBATION) “inactive; negative”.
